Test results: patent US20150051252A1, “COMPOUNDS FOR USE IN THE TREATMENT OF NEUROBLASTOMA, EWING'S SARCOMA OR RHABDOMYOSARCOMA” (priority 2012, published 2015)

Tests used:
Format in all cases: cell-based
[1] = test system: G-401 (Rhabdoid) cell line; assay: Cell line sensitivity (Cell Titer Glo), G-401; details: G-401 cells, 72 h, maximum observed response; 0% = vehicle, −100% = MG132 1 μM
Description: (§1) Cell culture: Cell lines are obtained from commercial sources including ATCC and DSMZ. All cell lines tested are cultured in RPMI or DMEM plus 10% FBS (Invitrogen) as supplier recommended. Cell lines are cultured in T-175 or 3 layer T-175 “triple” flasks using standard tissue culture techniques that are frequently carried out with a robot (CompacT—The Automation Partnership). All cell lines are thawed from frozen stock, grown at 37 C 5% CO2. Adherent lines are dislodged using TrypLE (Invitrogen), are expanded through at least 1 passage of 1:3 dilution and usually 2 to 3 passages before they are added to assay micro-titer plates. Cell count and viability are measured using Trypan dye exclusion with a ViCell counter (Beckman-Coulture). All cell lines are tested for and shown to be free of Mycoplasma using a PCR detection (http://www.radil.missouri.edu). […]
(§2) All assays are automated and are performed with an ultra-high throughput screening system built by the Genomics Institute of the Novartis Research Foundation (GNF Systems; http://www.gnfsystems.com/). […] Cell Titer Glo (Promega), which measures the amount of ATP in the well, is added and luminescence is read on a ViewLux plate reader (Perkin Elmer). […]

[2] = test system: SK-N-SH neuroblastoma cell line; assay: Cell line sensitivity (Cell Titer Glo), SK-N-SH; details: SK-N-SH cells, 72 h
Description: as §1, §2

[3] = test system: Hs 822.T Ewing's Sarcoma cell line; assay: Cell line sensitivity (Cell Titer Glo), Hs 822.T; details: Hs 822.T cells, 72 h
Description: as §1, §2

[4] = test system: RD rhabdomyosarcoma cell line; assay: Cell line sensitivity (Cell Titer Glo), RD; details: RD cells, 72 h
Description: as §1, §2

[5] = test system: SJRH30 rhabdomyosarcoma cell line; assay: Cell line sensitivity (Cell Titer Glo), SJRH30; details: SJRH30 cells, 72 h
Description: as §1, §2

[6] = test system: SK-N-FI neuroblastoma cell line; assay: Cell line sensitivity (Cell Titer Glo), SK-N-FI; details: SK-N-FI cells, 72 h
Description: as §1, §2

[7] = test system: KP-N-SI9s neuroblastoma cell line; assay: Cell line sensitivity (Cell Titer Glo), KP-N-SI9s; details: 72 h
Description: as §1, §2

[8] = test system: SK-N-BE(2) neuroblastoma cell line; assay: Cell line sensitivity (Cell Titer Glo), SK-N-BE(2); details: SK-N-BE(2) cells, 72 h, maximum observed response; 0% = vehicle, −100% = MG132 1 μM
Description: as §1, §2

[9] = test system: TC-71 Ewing's Sarcoma cell line; assay: Cell line sensitivity (Cell Titer Glo), TC-71; details: TC-71 cells, 72 h
Description: as §1, §2

[10] = test system: RH-41 rhabdomyosarcoma cell line; assay: Cell line sensitivity (Cell Titer Glo), RH-41; details: RH-41 cells, 72 h
Description: as §1, §2

[11] = test system: SK-N-DZ neuroblastoma cell line; assay: Cell line sensitivity (Cell Titer Glo), SK-N-DZ; details: SK-N-DZ cells, 72 h
Description: as §1, §2

[12] = test system: SIMA neuroblastoma cell line; assay: Cell line sensitivity (Cell Titer Glo), SIMA; details: SIMA cells, 72 h, maximum observed response; 0% = vehicle, −100% = MG132 1 μM
Description: as §1, §2

[13] = test system: SK-N-AS neuroblastoma cell line; assay: Cell line sensitivity (Cell Titer Glo), SK-N-AS; details: SK-N-AS cells, 72 h, maximum observed response; 0% = vehicle, −100% = MG132 1 μM
Description: as §1, §2

[14] = test system: SK-ES-1 Ewing's Sarcoma cell line; assay: Cell line sensitivity (Cell Titer Glo), SK-ES-1; details: SK-ES-1 cells, 72 h
Description: as §1, §2

[15] = test system: KYM-1 rhabdomyosarcoma cell line; assay: Cell line sensitivity (Cell Titer Glo), KYM-1; details: KYM-1 cells, 72 h, maximum observed response; 0% = vehicle, −100% = MG132 1 μM
Description: as §1, §2

[16] = test system: TE 125.T rhabdomyosarcoma cell line; assay: Cell line sensitivity (Cell Titer Glo), TE 125.T; details: TE 125.T cells, 72 h, maximum observed response; 0% = vehicle, −100% = MG132 1 μM
Description: as §1, §2

[17] = test system: CHP-212 neuroblastoma cell line; assay: Cell line sensitivity (Cell Titer Glo), CHP-212; details: CHP-212 cells, 72 h
Description: as §1, §2

[18] = test system: IMR-32 neuroblastoma cell line; assay: Cell line sensitivity (Cell Titer Glo), IMR-32; details: IMR-32 cells, 72 h, maximum observed response; 0% = vehicle, −100% = MG132 1 μM
Description: as §1, §2

[19] = test system: MHH-ES-1 Ewing's Sarcoma cell line; assay: Cell line sensitivity (Cell Titer Glo), MHH-ES-1; details: 72 h
Description: as §1, §2

[20] = test system: G-402 (Leiomyoblastoma) cell line; assay: Cell line sensitivity (Cell Titer Glo), G-402; details: G-402 cells, 72 h, maximum observed response; 0% = vehicle, −100% = MG132 1 μM
Description: as §1, §2

[21] = test system: KELLY neuroblastoma cell line; assay: Cell line sensitivity (Cell Titer Glo), KELLY; details: KELLY cells, 72 h, maximum observed response; 0% = vehicle, −100% = MG132 1 μM
Description: as §1, §2

[22] = test system: A-673 rhabdomyosarcoma cell line; assay: Cell line sensitivity (Cell Titer Glo), A-673; details: A-673 cells, 72 h
Description: as §1, §2

[23] = test system: Hs 729 rhabdomyosarcoma cell line; assay: Cell line sensitivity (Cell Titer Glo), Hs 729; details: Hs 729 cells, 72 h, maximum observed response; 0% = vehicle, −100% = MG132 1 μM
Description: as §1, §2

[24] = test system: TE 617.T rhabdomyosarcoma cell line; assay: Cell line sensitivity (Cell Titer Glo), TE 617.T; details: TE 617.T cells, 72 h
Description: as §1, §2

[25] = Cell Titer Glo, inflection point, 0.0025 to 8 uM, read-out: COMPOUND I EC50
[26] = maximum observed response, 0% = vehicle, −100% = MG132 1 μM

EC50 [2, 25]: 1.6 µM
EC50 [3, 25]: 1.5 µM
EC50 [4, 25]: 3.3 µM
EC50 [5, 25]: 2.8 µM
EC50 [6, 25]: 6.1 µM
EC50 ([7]; KP-N-SI9s cells (KRAS mutation), Cell Titer Glo, inflection point, 0.0025 to 8 uM, read-out: COMPOUND I EC50): 0.6 µM
EC50 ([9]; read-out: COMPOUND I EC50, Cell Titer Glo, inflection point, 0.0025 to 8 uM, heading: COMPOUND I EC50): > 8 µM
EC50 [10, 25]: 1.6 µM
EC50 [11, 25]: 5.3 µM
EC50 [14, 25]: 0.5 µM
EC50 [17, 25]: 0.8 µM
EC50 ([19]; MHH-ES-1 cells (amplified PIK3CA), Cell Titer Glo, inflection point, 0.0025 to 8 uM, read-out: COMPOUND I EC50): 2.7 µM
EC50 [22, 25]: 5.7 µM
EC50 [24, 25]: 3.8 µM
Compound: Cc1nc(NC(=O)N2CCC[C@H]2C(N)=O)sc1-c1ccnc(C(C)(C)C(F)(F)F)c1 [COMPOUND I, (S)-Pyrrolidine-1,2-dicarboxylic acid 2-amide 1-({4-methyl-5-[2-(2,2,2-trifluoro-1,1-dimethyl-ethyl)-pyridin-4-yl]-thiazol-2-yl}-amide)]
COMPOUND I Amax (% inhibition) [1]: −46.6%
COMPOUND I Amax (% inhibition) [2, 26]: −44.6%
COMPOUND I Amax (% inhibition) [3, 26]: −31.6%
COMPOUND I Amax (% inhibition) [4, 26]: −43.2%
COMPOUND I Amax (% inhibition) [5, 26]: −56.5%
COMPOUND I Amax (% inhibition) [6, 26]: −55.6%
COMPOUND I Amax (% inhibition) ([7]; KP-N-SI9s cells, maximum observed response, 0% = vehicle, −100% = MG132 1 μM): −54.2%
COMPOUND I Amax (% inhibition) [8]: −8.7%
COMPOUND I Amax (% inhibition) [9, 26]: −5.4%
COMPOUND I Amax (% inhibition) [10, 26]: −85.4%
COMPOUND I Amax (% inhibition) [11, 26]: −42.4%
COMPOUND I Amax (% inhibition) [12]: −42.0%
COMPOUND I Amax (% inhibition) [13]: −11.6%
COMPOUND I Amax (% inhibition) [14, 26]: −51.7%
COMPOUND I Amax (% inhibition) [15]: −38.0%
COMPOUND I Amax (% inhibition) [16]: −49.8%
COMPOUND I Amax (% inhibition) [17, 26]: −30.9%
COMPOUND I Amax (% inhibition) [18]: −8.9%
COMPOUND I Amax (% inhibition) ([19]; MHH-ES-1 cells, maximum observed response, 0% = vehicle, −100% = MG132 1 μM): −79.2%
COMPOUND I Amax (% inhibition) [20]: −26.4%
COMPOUND I Amax (% inhibition) [21]: −4.3%
COMPOUND I Amax (% inhibition) [22, 26]: −56.2%
COMPOUND I Amax (% inhibition) [23]: −10.2%
COMPOUND I Amax (% inhibition) [24, 26]: −55.2%
